Data on one molecule can be found in US20230366033A1, “METHODS FOR TREATING CANCERS WITH INHIBITORS TARGETING THE ROLE OF GRB2 IN DNA REPAIR” (Board of Regents, The University of Texas System, priority 2020, published 2023).

Common to all, as to format: cell-based
Assay [1] concerns GRB2-KO HeLa cells reconstituted with K109R mutant GRB2. In words: SRB assay of olaparib-induced cytotoxicity. To be noted: Homo sapiens, GRB2-KO cells reconstituted with K109R GRB2, sulforhodamine B assay. The source says:
(§1) FIGS. 7A-7F. GRB2 KO sensitizes cells to PARPi. (FIG. 7A) MRE11 depletion levels with two different shRNA (KD1 and KD2) in U2OS cells with normal level of GRB2 (Ctrl) and GRB2-knockout (KO). (FIG. 7B) DR-GFP reporter assay in MRE11 knockdown control (Ctrl) and GRB2-KO U2OS cells. (FIG. 7C) DR-GFP reporter assay in PTEN-knockdown and/or GRB2-KO U2OS cells. (FIG. 7D) SRB assay of olaparib-induced cytotoxicity in control HeLa cells, GRB2-KO cells and GRB2-KO cells reconstituted with WT or K109R mutant GRB2. IC50 values are shown. (FIG. 7E) Clonogenic assay evaluating the effect of a PARPi on colony formation of HeLa cells. Cells were treated with the indicated concentrations of the PARPi olaparib and cultured for 10 days, then the resulting colonies were visualized with crystal violet staining and counted by Gelcount instrument. Parental control (WT), GRB2-KO (KO), ^WTGRB2 (KO+GRB2) and ^K109RGRB2 (KO+K109R) reconstituted HeLa cells. For each concentration on the X-axis, the columns represent, from left to right, WT, GRB2 KO, KO+GRB2, and KO+K109R. ***, p≤0.001; NS, not significant. (FIG. 7F) Bar graph representing Annexin-V/propidium iodide combined labeling and flow cytometry analysis of olaparib-treated control (WT), GRB2-KO, reconstituted ^WTGRB2(KO+GRB2) and K109R mutant (KO+K109R) HeLa cells. Cells were treated with either DMSO or 50 μM olaparib for 72 h. For each treatment group on the X-axis, the columns represent, from left to right, WT, GRB2 KO, KO+GRB2, and KO+K109R. All data are representative of three independent experiments. The significance was analyzed by two-sided student's t-test. *, p≤0.05; **, p≤0.01; ***, p≤0.001; NS, not significant.
(§2) Cell culture. HEK293T, NIH3T3 and A431 cells (purchased from ATCC) and mouse embryonic fibroblasts (MEFs) and H2AX-KO MEFs (gifts from Andre Nussenzweig, Center for Cancer Research, National Cancer Institute) were maintained in Dulbecco's modified Eagle's high-glucose medium (DMEM). HeLa cells (ATCC) were maintained in RPMI 1640 medium, HAP1 cells (Horizon Discovery) were maintained in Iscove's Modified Dulbecco's medium. U2OS cells (ATCC) were maintained in McCoy's 5A medium. Media were supplemented with 10% (vol/vol) fetal bovine serum (FBS) and 1% antibiotic/antimycotic (Lonza) in a humidified incubator with 10% CO2. Stable HEK293T cells containing Strep-tagged GRB2 or GRB2 mutants were produced as described previously (Ahmed et al., 2013). The I-SecI reporter assay (a generous gift from Jeremy Stark, City of Hope) was performed as described previously(Gunn and Stark, 2012). The sulforhodamine B (SRB) cytotoxicity and colony formation assays were performed as described previously(Houl et al., 2019).
Background: Sulforhodamine B stains cellular protein and so reports cell mass.

Assay [2] deals with GRB2-KO HeLa cells reconstituted with WT GRB2. In words: SRB assay of olaparib-induced cytotoxicity. The following applies: Homo sapiens, GRB2-KO cells reconstituted with WT GRB2, sulforhodamine B assay.
Excerpt: as §1, §2

Assay [3] deals with GRB2-KO HeLa cells. Briefly: SRB assay of olaparib-induced cytotoxicity. To be noted: sulforhodamine B assay.
Excerpt: as §1, §2

The test system of another assay is control HeLa cells. In words: SRB assay of olaparib-induced cytotoxicity. The following applies: Homo sapiens; WT control HeLa cells, sulforhodamine B assay.
Excerpt: as §1, §2

For assay [4], the system named is GRB2-KO HeLa cells. Briefly: Annexin V/PI staining assay, flow cytometry. The following applies: 50 μM olaparib for 72 h.
Excerpt: as §1
(§3) Annexin V/PI staining assay. To determine the percentage of olaparib-induced apoptotic cells, an Annexin V-propidium iodide (PI) staining assay was used according to the standard protocol (Life Technologies). […] After incubation for 15 min at room temperature in the dark, samples were analyzed on a flow cytometer (FACSCanto IL, BD Biosciences) for the detection of Annexin V- and PI-positive subpopulations. […]
(A flow cytometer gives signals particle by particle.)

The test system of assay [5] is K109R mutant (KO+K109R) HeLa cells. In words: Annexin V/PI staining assay, flow cytometry. To be noted: K109R GRB2 reconstituted cells, 50 μM olaparib for 72 h.
Excerpt: as §1, §3

For another assay, the system named is control (WT) HeLa cells. In words: Annexin V/PI staining assay, flow cytometry. To be noted: 50 μM olaparib for 72 h.
Excerpt: as §1, §3

Assay [6] deals with GRB2-KO HeLa cells. Briefly: Clonogenic survival assay with olaparib. To be noted: cultured for 10 days.
Excerpt: as §1, with “significant. […]” for “significant. (FIG. 7F) Bar graph representing Annexin-V/propidium iodide combined labeling and flow cytometry analysis of olaparib-treated control (WT), GRB2-KO, reconstituted ^WTGRB2(KO+GRB2) and K109R mutant (KO+K109R) HeLa cells. Cells were treated with either DMSO or 50 μM olaparib for 72 h. For each treatment group on the X-axis, the columns represent, from left to right, WT, GRB2 KO, KO+GRB2, and KO+K109R. All data are representative of three independent experiments.”, “significant. […]” for “significant.”

The test system of assay [7] is K109R GRB2 reconstituted HeLa cells. In words: Clonogenic survival assay with olaparib. To be noted: cultured for 10 days.
Excerpt: as §1, with “significant. […]” for “significant. (FIG. 7F) Bar graph representing Annexin-V/propidium iodide combined labeling and flow cytometry analysis of olaparib-treated control (WT), GRB2-KO, reconstituted ^WTGRB2(KO+GRB2) and K109R mutant (KO+K109R) HeLa cells. Cells were treated with either DMSO or 50 μM olaparib for 72 h. For each treatment group on the X-axis, the columns represent, from left to right, WT, GRB2 KO, KO+GRB2, and KO+K109R. All data are representative of three independent experiments.”, “significant. […]” for “significant.”

The IC50 is the concentration at which inhibition is half-maximal. The low end stands for higher potency, the high end for lower potency. As to `O=C(c1cc(Cc2n[nH]c(=O)c3ccccc23)ccc1F)N1CCN(C(=O)C2CC2)CC1` [olaparib], the IC50 in assay [1] was found to be 20 ± 3 µM; in [2], 164 ± 47 µM; in the assay with GRB2-KO HeLa cells [3] (Homo sapiens, HeLa, GRB2-KO cells), 18 ± 2.9 µM; with control HeLa cells, 124 ± 41 µM. The “sensitivity to olaparib, GRB2-KO cells versus WT control cells” value with GRB2-KO HeLa cells [3] is 7 times. Moreover, the figures for the olaparib-induced apoptosis with GRB2-KO HeLa cells [4] and with control (WT) HeLa cells were 60% and 20%, respectively. The olaparib-induced apoptosis phenotype result in assay [5] was “failed to rescue the phenotype”. Also, the “colony formation in response to olaparib” value (with GRB2-KO HeLa cells [6]; in [7]) was “severe reduction in colony formation” each time.
